Assay [1] concerns mTORC1 signaling (pS6 Ser240/244) in MEF TSC1−/− cells. As to the kind of experiment: MEF TSC1-/- cell based assay for rapalog potency (pS6). Further details: species or system mouse. The conditions noted are these: 2 h treatment, average from multiple assays. From the text:
Potency of mTOR inhibitors may also be determined using a MEF TSC1−/− cell-based assay. MEF TSC1−/− cells are Mouse Embryonic Fibroblasts deficient in the Tuberous sclerosis protein, TSC1, which negatively regulates mTORC1 signaling. Thus, the deficiency of TSC1 induces constitutive mTORC1 activation, resulting in phosphorylation (activation) of the downstream proteins in the mTORC1 signaling pathways. This cell-based assay is used to measure inhibition (de-phosphorylation) of the mTORC1 signaling components S6 and 4EBP1, by rapalogs or other mTOR inhibitors.
The assay is typically carried out as follows: MEF TSC1−/− cells are plated on Poly-D-lysine coated 384 well Griener clear bottom plates and incubated overnight at 37° C., 5% CO2. […] Cells are fixed with 4% paraformaldehyde for 30 min and washed 5 times with TBS-EDTA followed by immuno-staining with florescent tag labeled antibodies for pS6 and p4EBP1. Nuclei are visualized with Hoechst staining. Cells are imaged using respective florescence channels and the potency of mTOR inhibitors is defined by pS6 IC50 (nM).
Cell-based assay for rapalog potency determination. Rapalog potency was determined using MEF TSC1−/− cell based assay. MEF TSC1−/− cells are Mouse Embryonic Fibroblasts deficient in Tuberous sclerosis protein-TSC1, which negatively regulates mTORC1 signaling and thus display constitutive mTORC1 activation, resulting in phosphorylation (activation) of downstream molecules. This cell-based assay is used to measure inhibition (de-phosphorylation) of S6 and 4EBP1 by rapalogs or other mTOR inhibitors.
MEF TSC1−/− cells were plated on Poly-D-lysine coated 384 well Griener clear bottom plates and incubated overnight at 37° C., 5% CO2. […] Nuclei were visualized with Hoechst (ThermoFisher Scientific #H3570) staining. Cells were imaged (InCell 600) using respective fluorescence channels and the potency of mTOR inhibitors was defined by pS6 IC50 (nM).
In vitro potency of mTOR inhibitors was defined by pS6 IC50 (nM) in MEF TSC1−/− cells.
IC50 values are calculated as the average from multiple assays.

The target of a further assay is FKBP12 (Homo sapiens (Human), UniProt P62942). As to the kind of experiment: SPR assay, binding affinity to FKBP12. Conditions: single-cycle kinetics. As to the method: (§1) SPR Assay to Determine Binding Affinity to FK506-Binding Proteins (FKBP). N-terminal avi-his6 tagged FKBP fusions to FKBP12, FKBP51 and FKBP52 were expressed in E. coli and purified using standard chromatography. Each protein was subsequently immobilized on a streptavidin chip in a Biacore 8K SPR instrument (GE Healthcare). Using single-cycle kinetics, compound titrations were flowed at 45 uL/min over each surface using 2-minute association and 30-minute dissociation phases in a buffer containing 50 mM Tris pH 7.5/150 mM NaCl/0.01% Tween 20/1 mM DTT/2% DMSO. The data was fit using low molecular weight (LMW) single-cycle kinetics. The equilibrium dissociation constants (KD) are reported. […]
Sequence of FKBP12 (P62942 whole entry, the tested form may be a part): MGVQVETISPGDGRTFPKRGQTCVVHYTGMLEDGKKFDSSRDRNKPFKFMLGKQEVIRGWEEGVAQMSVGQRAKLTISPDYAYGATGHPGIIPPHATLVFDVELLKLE

Another assay has as its target FKBP52 (Homo sapiens (Human), UniProt Q02790). As to the kind of experiment: SPR assay, binding affinity to FKBP52. Conditions: single-cycle kinetics. As for the experimental part: as §1
Assay [2] relates to S6K1 (Thr389) phosphorylation (mTORC1 activity) in WT 293T cells. Kind of assay: S6K1 (Thr389) phosphorylation ELISA in wild-type 293T cells. It is filed as cell-based. The conditions noted are these: 2 h, relative to DMSO. As to the method: WT, FKBP12 knock-down and FKBP12 knock-out 293T cells were plated at a density of 30,000 cells per well in poly-D-Lysine coated 96-well plates (Corning, #354461) in Dulbecco's modified Eagle's medium (ThermoFisher, #11995-065) supplemented with 10% fetal bovine serum (ThermoFisher, #16140-071). Cells were incubated at 37° C., 5% CO2 for 48 hours until they reached ˜80% confluence. […] Media supplemented with blank Dimethyl sulfoxide (DMSO) was used as a control for both compounds. Phosphorylated amounts of S6K1 (Thr389) were detected by a sandwich ELISA kit (Cell signaling, #7063C) following the manufacture's protocol.
S6K1 is a downstream target of mTORC1 and phosphorylation of its rapalog-sensitive Thr389 site is used as a functional readout of mTORC1 activity. Lee, C. H., Inoki, K. and Guan, K. L. (2007). mTOR pathway as a target in […]. Annu. Rev. Pharmacol. Toxicol. 47. 443-467. […] In FKBP12 knock-out cells. […] Such specificity of Example 2 to FKBP12 may facilitate targeting cells and tissues with relatively high levels of FKBP12 expression, while avoiding (or minimizing) side effects in the tissues where FKBP12 is weakly expressed.

Assay [3] has as its system S6K1 (Thr389) phosphorylation (mTORC1 activity) in FKBP12 knock-down 293T cells. Kind of assay: S6K1 (Thr389) phosphorylation ELISA in FKBP12 knock-down 293T cells. It is filed as cell-based. Conditions: 2 h, relative to DMSO.
In assay [4] the test system is S6K1 (Thr389) phosphorylation (mTORC1 activity) in FKBP12 knock-out 293T cells. Kind of assay: S6K1 (Thr389) phosphorylation ELISA in FKBP12 knock-out 293T cells. It is filed as cell-based. Conditions: 2 h, relative to DMSO.

The values below come from US20250223297A1, “NOVEL RAPAMYCIN DERIVATIVES” (Novartis AG, priority 2017, published 2025).

Sequence of FKBP52 (Q02790 whole entry): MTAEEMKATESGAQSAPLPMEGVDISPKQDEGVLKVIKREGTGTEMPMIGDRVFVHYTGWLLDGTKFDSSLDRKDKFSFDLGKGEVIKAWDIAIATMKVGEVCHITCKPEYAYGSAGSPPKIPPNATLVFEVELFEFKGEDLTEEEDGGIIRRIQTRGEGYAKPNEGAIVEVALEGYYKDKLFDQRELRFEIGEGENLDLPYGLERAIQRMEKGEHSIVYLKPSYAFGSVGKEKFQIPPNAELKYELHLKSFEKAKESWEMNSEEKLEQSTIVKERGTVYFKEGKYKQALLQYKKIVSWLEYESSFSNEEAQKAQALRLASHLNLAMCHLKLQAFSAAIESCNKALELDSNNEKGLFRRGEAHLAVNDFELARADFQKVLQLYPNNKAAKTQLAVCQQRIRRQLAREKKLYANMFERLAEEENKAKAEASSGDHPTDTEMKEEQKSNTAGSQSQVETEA

In assay [1] (Mus musculus, 2 h), `CO[C@@H]1C[C@H](C[C@@H](C)[C@@H]2CC[C@H](C)/C=C(\C)[C@@H](O)[C@@H](OC)C(=O)[C@H](C)C[C@H](C)/C=C/C=C/C=C(\C)C(N3CCN(CCO)C3=O)C[C@@H]3CC[C@@H](C)[C@@](O)(O3)C(=O)C(=O)N3CCCC[C@H]3C(=O)O2)CC[C@H]1O` (single isomer, unassigned) [Example 5] had an IC50 of 153 nM.

On to `CO[C@@H]1C[C@H](C[C@@H](C)[C@@H]2CC[C@H](C)/C=C(\C)[C@@H](O)[C@@H](OC)C(=O)[C@H](C)C[C@H](C)/C=C/C=C/C=C(\C)C(N3CCS3(=O)=O)C[C@@H]3CC[C@@H](C)[C@@](O)(O3)C(=O)C(=O)N3CCCC[C@H]3C(=O)O2)CC[C@H]1O` (single isomer, unassigned) [Example 6, C16-(1,1-dioxido-1,2-thiazetidin-2-yl)-C32-deoxo-rapamycin], for which it took 0.17 nM to reach half-maximal inhibition in assay [1] (Mus musculus, 2 h) (IC50).

As to `CO[C@@H]1C[C@H](C[C@@H](C)[C@@H]2CC[C@H](C)/C=C(\C)[C@@H](O)[C@@H](OC)C(=O)[C@H](C)C[C@H](C)/C=C/C=C/C=C(\C)C(N3CCS3(=O)=O)C[C@@H]3CC[C@@H](C)[C@@](O)(O3)C(=O)C(=O)N3CCCC[C@H]3C(=O)O2)CC[C@H]1O` (single isomer, unassigned) [Example 7, C16-(1,1-dioxido-1,2-thiazetidin-2-yl)-C32-deoxo-rapamycin], in assay [1], the IC50 was 0.3 nM.

`CO[C@@H]1C[C@H](C[C@@H](C)[C@@H]2CC[C@H](C)/C=C(\C)[C@@H](O)[C@@H](OC)C(=O)[C@H](C)C[C@H](C)/C=C/C=C/C=C(\C)C(N3CCS3(=O)=O)C[C@@H]3CC[C@@H](C)[C@@](O)(O3)C(=O)C(=O)N3CCCC[C@H]3C(=O)O2)CC[C@H]1OCCO` (single isomer, unassigned) [Example 8, C16-(1,1-dioxido-1,2-thiazetidin-2-yl)-C32-deoxo-C40-(2-hydroxyethoxy)-rapamycin] had an IC50 in assay [1] of 0.328 nM.

`CO[C@@H]1C[C@H](C[C@@H](C)[C@@H]2CC[C@H](C)/C=C(\C)[C@@H](O)[C@@H](OC)C(=O)[C@H](C)C[C@H](C)/C=C/C=C/C=C(\C)C(N3CCS3(=O)=O)C[C@@H]3CC[C@@H](C)[C@@](O)(O3)C(=O)C(=O)N3CCCC[C@H]3C(=O)O2)CC[C@H]1OCCO` (single isomer, unassigned) [Example 9, C16-(1,1-dioxido-1,2-thiazetidin-2-yl)-C32-deoxo-C40-(2-hydroxyethoxy)-rapamycin]: 1.45 nM corresponded to half-maximal inhibition in assay [1] (IC50).

For `CO[C@@H]1C[C@H](C[C@@H](C)[C@@H]2CC[C@H](C)/C=C(\C)[C@@H](O)[C@@H](OC)C(=O)[C@H](C)C[C@H](C)/C=C/C=C/C=C(\C)C(N3CCS3(=O)=O)C[C@@H]3CC[C@@H](C)[C@@](O)(O3)C(=O)C(=O)N3CCCC[C@H]3C(=O)O2)CC[C@H]1OP(C)(C)=O` (single isomer, unassigned) [Example 10, C16-(1,1-dioxido-1,2-thiazetidin-2-yl)-C32-deoxo-C40-dimethylphosphinyl-rapamycin], the Kd worked out at 1.6 nM at FKBP12 and 176 nM at FKBP52.

`CO[C@@H]1C[C@H](C[C@@H](C)[C@@H]2CC[C@H](C)/C=C(\C)[C@@H](O)[C@@H](OC)C(=O)[C@H](C)C[C@H](C)/C=C/C=C/C=C(\C)C(N3CCS3(=O)=O)C[C@@H]3CC[C@@H](C)[C@@](O)(O3)C(=O)C(=O)N3CCCC[C@H]3C(=O)O2)CC[C@@H]1n1cnnn1` (single isomer, unassigned) [Example 12] came in with an IC50 in assay [1] (Mus musculus, 2 h) of 0.374 nM.

`CO[C@@H]1C[C@H](C[C@@H](C)[C@@H]2CC[C@H](C)/C=C(\C)[C@@H](O)[C@@H](OC)C(=O)[C@H](C)C[C@H](C)/C=C/C=C/C=C(\C)C(N3CCS3(=O)=O)C[C@@H]3CC[C@@H](C)[C@@](O)(O3)C(=O)C(=O)N3CCCC[C@H]3C(=O)O2)CC[C@@H]1n1cnnn1` (single isomer, unassigned) [Example 13]: in assay [1], the IC50 came to 0.656 nM.

`CO[C@@H]1C[C@H](C[C@@H](C)[C@@H]2CC[C@H](C)/C=C(\C)[C@@H](O)[C@@H](OC)C(=O)[C@H](C)C[C@H](C)/C=C/C=C/C=C(\C)C(N3CCCS3(=O)=O)C[C@@H]3CC[C@@H](C)[C@@](O)(O3)C(=O)C(=O)N3CCCC[C@H]3C(=O)O2)CC[C@H]1OP(C)(C)=O` (single isomer, unassigned) [Example 14, C16-(1,1-dioxidoisothiazolidin-2-yl)-C32-deoxo-C40-dimethylphosphinyl-rapamycin] yielded an IC50 in assay [1] (Mus musculus, 2 h) of 7.77 nM. Besides, the figures for the Kd at FKBP12 and at FKBP52 were 16 nM and 542 nM, respectively.

The compound `CO[C@@H]1C[C@H](C[C@@H](C)[C@@H]2CC[C@H](C)/C=C(\C)[C@@H](O)[C@@H](OC)C(=O)[C@H](C)C[C@H](C)/C=C/C=C/C=C(\C)C(N3CCCS3(=O)=O)C[C@@H]3CC[C@@H](C)[C@@](O)(O3)C(=O)C(=O)N3CCCC[C@H]3C(=O)O2)CC[C@H]1OP(C)(C)=O` (single isomer, unassigned) [Example 15, C16-(1,1-dioxidoisothiazolidin-2-yl)-C32-deoxo-C40-dimethylphosphinyl-rapamycin] returned a concentration for half-maximal inhibition (IC50) in assay [1] (Mus musculus, 2 h) of 3.2 nM.

As for `CO[C@@H]1C[C@H](C[C@@H](C)[C@@H]2CC[C@H](C)/C=C(\C)[C@@H](O)[C@@H](OC)C(=O)[C@H](C)C[C@H](C)/C=C/C=C/C=C(\C)[C@H](N3CCCS3(=O)=O)C[C@@H]3CC[C@@H](C)[C@@](O)(O3)C(=O)C(=O)N3CCCC[C@H]3C(=O)O2)CC[C@H]1OCCO` [Example 16], the figures for the Kd on FKBP12 and on FKBP52 were 35 nM and 4070 nM, respectively.

Regarding `CO[C@H]1C[C@@H]2CC[C@@H](C)[C@@](O)(O2)C(=O)C(=O)N2CCCC[C@H]2C(=O)O[C@H]([C@H](C)C[C@@H]2CC[C@@H](OCCO)[C@H](OC)C2)CC(=O)[C@H](C)/C=C(\C)[C@@H](O)[C@@H](OC)C(=O)[C@H](C)C[C@H](C)/C=C/C=C/C=C/1C` [RAD001, everolimus, reference compound], the Kd turned out to be 500 nM on FKBP12 and 1760 nM at FKBP52. Further, in assay [2], the “inhibition of S6K1 (Thr389)” value is on record as around 80%. Moreover, the “maximum inhibition of S6K1 (Thr389)” value in assay [3] was around 70%. In assay [4], the “inhibition of S6K1 (Thr389) phosphorylation” value was above 60%.
